Reference: patent US5292733A, “Cephalosporin compounds” (Lucky Limited, priority 1991, dated 1994)
≈ marks a conversion by molar mass, not a printed value. Read-outs that look alike come from different tables or passages of the source.

How the values were obtained:
Assay in all cases: Antibacterial activity MIC, two-fold agar dilution
Assay type in all cases: cell-based
[1] = test system: Acinetobacter calcoaceticus ATCC 15473; settings: read-out: Antibacterial Activity MIC
How it was run: (§1)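 Agar dilution assay in Muller-Hinton medium with doubling compound concentrations. Strains were inoculated as 2 μl of a 10^7 CFU/ml suspension and grown for 20 hours at 37° C.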

[2] = test system: Bacillus cereus ATCC 11778; settings: read-out: Antibacterial Activity MIC
How it was run: as §1

[3] = test system: Bacillus megaterium ATCC 9885; settings: Priestia megaterium, read-out: Antibacterial Activity MIC
How it was run: as §1

[4] = test system: Citrobacter freundii ATCC 8090; settings: read-out: Antibacterial Activity MIC
How it was run: as §1

[5] = test system: Enterobacter aerogenes ATCC 29751; settings: Klebsiella aerogenes, read-out: Antibacterial Activity MIC
How it was run: as §1

[6] = test system: Enterobacter cloacae ATCC 27508; settings: read-out: Antibacterial Activity MIC
How it was run: as §1

[7] = test system: Escherichia coli ATCC 10536; settings: ATCC10536, Muller-Hinton agar, 37° C., 20 hours
How it was run: as §1

[8] = test system: Escherichia coli ATCC 25922; settings: ATCC25922, Muller-Hinton agar, 37° C., 20 hours
How it was run: as §1

[9] = test system: Klebsiella pneumoniae ATCC 10031; settings: read-out: Antibacterial Activity MIC
How it was run: as §1

[10] = test system: Micrococcus luteus ATCC 9341; settings: read-out: Antibacterial Activity MIC
How it was run: as §1

[11] = test system: Morganella morganii ATCC 8076h; settings: ATCC8076H, Muller-Hinton agar, 37° C., 20 hours
How it was run: as §1

[12] = test system: Proteus mirabilis ATCC 25933; settings: read-out: Antibacterial Activity MIC
How it was run: as §1

[13] = test system: Proteus vulgaris ATCC 6059; settings: read-out: Antibacterial Activity MIC
How it was run: as §1

[14] = test system: Providencia rettgeri ATCC 9250; settings: ATCC9250, Muller-Hinton agar, 37° C., 20 hours
How it was run: as §1

[15] = test system: Pseudomonas aeruginosa ATCC 10145; settings: read-out: Antibacterial Activity MIC
How it was run: as §1

[16] = test system: Pseudomonas aeruginosa ATCC 25619; settings: read-out: Antibacterial Activity MIC
How it was run: as §1

[17] = test system: Pseudomonas aeruginosa ATCC 27853; settings: read-out: Antibacterial Activity MIC
How it was run: as §1

[18] = test system: Salmonella typhimurium ATCC 14028; settings: Salmonella enterica, read-out: Antibacterial Activity MIC
How it was run: as §1

[19] = test system: Serratia marcescens ATCC 27117; settings: read-out: Antibacterial Activity MIC
How it was run: as §1

[20] = test system: Shigella flexneri ATCC 11836; settings: ATCC11836, Muller-Hinton agar, 37° C., 20 hours
How it was run: as §1

[21] = test system: Shigella sonnei ATCC 11060; settings: ATCC11060, Muller-Hinton agar, 37° C., 20 hours
How it was run: as §1

[22] = test system: Staphylococcus aureus ATCC 10537; settings: read-out: Antibacterial Activity MIC
How it was run: as §1

[23] = test system: Staphylococcus aureus ATCC 6538p; settings: ATCC6538P, read-out: Antibacterial Activity MIC
How it was run: as §1

[24] = test system: Staphylococcus epidermidis ATCC 12228; settings: read-out: Antibacterial Activity MIC
How it was run: as §1

[25] = test system: Streptococcus faecalis ATCC 29212; settings: Enterococcus faecalis, read-out: Antibacterial Activity MIC
How it was run: as §1

## CO/N=C(\C(=O)N[C@@H]1C(=O)N2C(C(=O)[O-])=C(CSc3cc(N)[n+](C)c(N)n3)CS[C@H]12)c1csc(N)n1 [Compound I-21, (6R,7R)-7-[(Z)-2-(2-aminothiazol-4-yl)-2-(methoxyimino)acetamido]-3-(2,6-diamino-1-methylpyrimidinium-4-yl)thiomethyl-3-cephem-4-carboxylate]
[1]; ATCC15473, Acinetobacter calcoaceticus ATCC 15473, Muller-Hinton agar, 37° C., 20 hours
  MIC: 8 µg/mL (≈ 14.5 µM)
[2]; ATCC11778, Bacillus cereus ATCC 11778, Muller-Hinton agar, 37° C., 20 hours
  MIC: 128 µg/mL (≈ 232 µM)
[3]; ATCC9885, Bacillus megaterium ATCC 9885, Muller-Hinton agar, 37° C., 20 hours
  MIC: 0.13 µg/mL (≈ 0.236 µM)
[4]; ATCC8090, Citrobacter freundii ATCC 8090, Muller-Hinton agar, 37° C., 20 hours
  MIC: 0.031 µg/mL (≈ 0.0562 µM)
[5]; ATCC29751, Enterobacter aerogenes ATCC 29751, Muller-Hinton agar, 37° C., 20 hours
  MIC: 0.25 µg/mL (≈ 0.453 µM)
[6]; ATCC27508, Enterobacter cloacae ATCC 27508, Muller-Hinton agar, 37° C., 20 hours
  MIC: ≤ 0.008 µg/mL
[7]
  MIC: 0.063 µg/mL (≈ 0.114 µM)
[8]
  MIC: 0.063 µg/mL (≈ 0.114 µM)
[9]; ATCC10031, Klebsiella pneumoniae ATCC 10031, Muller-Hinton agar, 37° C., 20 hours
  MIC: ≤ 0.008 µg/mL
[10]; ATCC9341, Micrococcus luteus ATCC 9341, Muller-Hinton agar, 37° C., 20 hours
  MIC: 0.063 µg/mL (≈ 0.114 µM)
[11]
  MIC: ≤ 0.008 µg/mL
[12]; ATCC25933, Proteus mirabilis ATCC 25933, Muller-Hinton agar, 37° C., 20 hours
  MIC: 0.5 µg/mL (≈ 0.906 µM)
[13]; ATCC6059, Proteus vulgaris ATCC 6059, Muller-Hinton agar, 37° C., 20 hours
  MIC: 0.5 µg/mL (≈ 0.906 µM)
[14]
  MIC: ≤ 0.008 µg/mL
[15]; ATCC10145, Pseudomonas aeruginosa ATCC 10145, Muller-Hinton agar, 37° C., 20 hours
  MIC: 16 µg/mL (≈ 29 µM)
[16]; ATCC25619, Pseudomonas aeruginosa ATCC 25619, Muller-Hinton agar, 37° C., 20 hours
  MIC: 1 µg/mL (≈ 1.81 µM)
[17]; ATCC27853, Pseudomonas aeruginosa ATCC 27853, Muller-Hinton agar, 37° C., 20 hours
  MIC: 2 µg/mL (≈ 3.63 µM)
[18]; Salmonella typhimurium ATCC 14028, Muller-Hinton agar, 37° C., 20 hours
  MIC: 0.13 µg/mL (≈ 0.236 µM)
[19]; ATCC27117, Serratia marcescens ATCC 27117, Muller-Hinton agar, 37° C., 20 hours
  MIC: 0.25 µg/mL (≈ 0.453 µM)
[20]
  MIC: 0.016 µg/mL (≈ 0.029 µM)
[21]
  MIC: 0.13 µg/mL (≈ 0.236 µM)
[22]; ATCC10537, Staphylococcus aureus ATCC 10537, Muller-Hinton agar, 37° C., 20 hours
  MIC: 0.5 µg/mL (≈ 0.906 µM)
[23]; Staphylococcus aureus ATCC 6538p, Muller-Hinton agar, 37° C., 20 hours
  MIC: 0.5 µg/mL (≈ 0.906 µM)
[24]; ATCC12228, Staphylococcus epidermidis ATCC 12228, Muller-Hinton agar, 37° C., 20 hours
  MIC: 0.25 µg/mL (≈ 0.453 µM)
[25]; ATCC29212, Streptococcus faecalis ATCC 29212, Muller-Hinton agar, 37° C., 20 hours
  MIC: 32 µg/mL (≈ 58 µM)

## CC(C)(O/N=C(\C(=O)N[C@@H]1C(=O)N2C(C(=O)[O-])=C(C[n+]3ccccc3)CS[C@H]12)c1csc(N)n1)C(=O)O [Ceftazidime, reference compound]
[1]; Acinetobacter calcoaceticus, ATCC15473, 20 h
  MIC: 4 µg/mL (≈ 7.32 µM)
[2]; Bacillus cereus, ATCC11778, 20 h
  MIC: 128 µg/mL (≈ 234 µM)
[3]; ATCC9885, 20 h
  MIC: 0.25 µg/mL (≈ 0.457 µM)
[4]; Citrobacter freundii, ATCC8090, 20 h
  MIC: 1 µg/mL (≈ 1.83 µM)
[5]; ATCC29751, 20 h
  MIC: 4 µg/mL (≈ 7.32 µM)
[6]; Enterobacter cloacae, ATCC27508, 20 h
  MIC: 0.063 µg/mL (≈ 0.115 µM)
[7]
  MIC: 0.13 µg/mL (≈ 0.238 µM)
[8]
  MIC: 0.13 µg/mL (≈ 0.238 µM)
[9]; Klebsiella pneumoniae, ATCC10031, 20 h
  MIC: 0.13 µg/mL (≈ 0.238 µM)
[10]; Micrococcus luteus, ATCC9341, 20 h
  MIC: 1 µg/mL (≈ 1.83 µM)
[11]
  MIC: 0.016 µg/mL (≈ 0.0293 µM)
[12]; Proteus mirabilis, ATCC25933, 20 h
  MIC: 0.063 µg/mL (≈ 0.115 µM)
[13]; Proteus vulgaris, ATCC6059, 20 h
  MIC: 0.063 µg/mL (≈ 0.115 µM)
[14]
  MIC: ≤ 0.008 µg/mL
[15]; Pseudomonas aeruginosa, ATCC10145, 20 h
  MIC: 2 µg/mL (≈ 3.66 µM)
[16]; Pseudomonas aeruginosa, ATCC25619, 20 h
  MIC: 1 µg/mL (≈ 1.83 µM)
[17]; Pseudomonas aeruginosa, ATCC27853, 20 h
  MIC: 1 µg/mL (≈ 1.83 µM)
[18]; 20 h
  MIC: 0.25 µg/mL (≈ 0.457 µM)
[19]; Serratia marcescens, ATCC27117, 20 h
  MIC: 0.13 µg/mL (≈ 0.238 µM)
[20]
  MIC: 0.063 µg/mL (≈ 0.115 µM)
[21]
  MIC: 0.063 µg/mL (≈ 0.115 µM)
[22]; Staphylococcus aureus, ATCC10537, 20 h
  MIC: 8 µg/mL (≈ 14.6 µM)
[23]; Staphylococcus aureus, 20 h
  MIC: 16 µg/mL (≈ 29.3 µM)
[24]; Staphylococcus epidermidis, ATCC12228, 20 h
  MIC: 8 µg/mL (≈ 14.6 µM)
[25]; ATCC29212, 20 h
  MIC: > 128 µg/mL
